From US5447942A, “N-derivatives of (phenylethyl-β-ol) amine, a process for their preparation and pharamaceutical compositions containing the same” (Societe de Conseils de Recherches et d'Applications …, priority 1992, dated 1995)
Where two headings read alike, the source gives them in different places. Values belong to the molecule of their own block, whether it stands above or below them.

Experiments:
[1] = system: isolated aorta contraction induced by phenylephrine; assay: inhibition of isolated aorta contraction induced by phenylephrine
α, receptor = assay: binding α receptor
[2] = system: acetylcholine induced bronchoconstriction; assay: inhibition of acetylcholine induced bronchoconstriction, Konzett and Rossler method (Table B); format: in vivo, Male Hartley Guinea Pigs; conditions: IV; for inhibition in vivo at 4.6 µmol/kg / inhibition in vivo at 1.5 µmol/kg / inhibition in vivo at 0.42 µmol/kg / inhibition in vivo at 4.18 µmol/kg / inhibition in vivo at 4.8 µmol/kg / inhibition in vivo at 0.47 µmol/kg / inhibition in vivo at 0.13 µmol/kg / inhibition in vivo at 1.6 µmol/kg: Cavia porcellus
Method: Male Hartley Guinea Pigs (450-500 g) were anaesthetised with ethyl carbamate and prepared for recording bronchoconstriction according to Konzett and Rossler method (Naunym Schmiedebergers Arch. Exp. Path. Pharmakol (1940) 195, 71). To abolish spontaneous respiration, an injection IV of vecuronium bromide (2 mg/kg) was made. Bronchoconstriction was induced by IV injection of Acetylcholine and the animals received one dose of β agonist compound (IV) 5 minutes later.

β adrenoceptors = assay: radioligand binding studies in lung membrane (Table A, binding affinity)
From the text: The results are summarised in Table A. Generally, the activity is better for the trans than the cis isomer.

[3] = 5 min, 0.42 μmol/kg, 5 mn, read-out: bronchoconstriction protection, score 5 mn
[4] = 0.25 h, 0.42 μmol/kg, 15 mn, read-out: bronchoconstriction protection, score 15 mn
[5] = 0.5 h, 0.42 μmol/kg, 30 mn, read-out: bronchoconstriction protection, score 30 mn
[6] = 5 min, 0.13 μmol/kg, 5 mn, read-out: bronchoconstriction protection, score 5 mn
[7] = 0.25 h, 0.13 μmol/kg, 15 mn, read-out: bronchoconstriction protection, score 15 mn
[8] = 0.5 h, 0.13 μmol/kg, 30 mn, read-out: bronchoconstriction protection, score 30 mn
[9] = 5 min, 1.6 μmol/kg, 5 mn, read-out: bronchoconstriction protection, score 5 mn
[10] = 0.25 h, 1.6 μmol/kg, 15 mn, read-out: bronchoconstriction protection, score 15 mn
[11] = 0.5 h, 1.6 μmol/kg, 30 mn, read-out: bronchoconstriction protection, score 30 mn

Compound: COc1cc([C@H]2CC[C@@H](CNCC(O)c3ccc(O)c(CO)c3)O2)cc(OC)c1OC (relative stereo) [Example 2 (cis), 2-(3',4',5'-trimethoxyphenyl)-5-[N-[β-(3'-hydroxymethyl-4'-hydroxy-phenyl)-β-hydroxy-ethyl]-aminomethyl]-tetrahydrofuran]
- pA2, inhibitor of isolated aorta contraction induced by phenylephrine [1]: 7.75
- Ki (α, receptor): 61 nM
- bronchoconstriction protection, duration of action ([2]; 4.6 μmol/kg): 5 mn
- inhibition in vivo at 4.6 µmol/kg ([2]; 5 min, 4.6 μmol/kg, 5 mn, read-out: bronchoconstriction protection, score 5 mn): 20 to 50%
- inhibition in vivo at 4.6 µmol/kg ([2]; 0.25 h, 4.6 μmol/kg, 15 mn, read-out: bronchoconstriction protection, score 15 mn): < 20%
- inhibition in vivo at 4.6 µmol/kg ([2]; 0.5 h, 4.6 μmol/kg, 30 mn, read-out: bronchoconstriction protection, score 30 mn): < 20%
- Ki (β adrenoceptors): 410 nM

Compound: COc1cc([C@H]2CC[C@@H](CCNCC(O)c3ccc(O)c(CO)c3)O2)cc(OC)c1OC (relative stereo) [Example 14 (cis), 2-(3',4',5'-trimethoxyphenyl)-5-[N-[β-(3'-hydroxymethyl-4'-hydroxy-phenyl)-β-hydroxy-ethyl]-aminoethyl]-tetrahydrofuran]
- bronchoconstriction protection, duration of action ([2]; 1.5 μmol/kg): 30 mn
- inhibition in vivo at 1.5 µmol/kg ([2]; 5 min, 1.5 μmol/kg, 5 mn, read-out: bronchoconstriction protection, score 5 mn): > 75%
- inhibition in vivo at 1.5 µmol/kg ([2]; 0.25 h, 1.5 μmol/kg, 15 mn, read-out: bronchoconstriction protection, score 15 mn): 20 to 50%
- inhibition in vivo at 1.5 µmol/kg ([2]; 0.5 h, 1.5 μmol/kg, 30 mn, read-out: bronchoconstriction protection, score 30 mn): 20 to 50%
- Ki (β adrenoceptors): 1900 nM

Compound: COc1cc([C@H]2CC[C@H](CCCNCC(O)c3ccc(O)c(CO)c3)O2)cc(OC)c1OC (relative stereo) [Example 15 (trans), 2-(3',4',5'-trimethoxyphenyl)-5-[-N-[β-(3'-hydroxymethyl-4'-hydroxy-phenyl)-β-hydroxy-ethyl]-aminopropyl]-tetrahydrofuran]
- bronchoconstriction protection, duration of action ([2]; 0.42 μmol/kg): 20 mn
- bronchoconstriction protection, duration of action ([2]; 4.18 μmol/kg): > 50 mn
- inhibition in vivo at 0.42 µmol/kg [2, 3]: > 75%
- inhibition in vivo at 4.18 µmol/kg ([2]; 5 min, 4.18 μmol/kg, 5 mn, read-out: bronchoconstriction protection, score 5 mn): > 75%
- inhibition in vivo at 0.42 µmol/kg [2, 4]: 50 to 75%
- inhibition in vivo at 4.18 µmol/kg ([2]; 0.25 h, 4.18 μmol/kg, 15 mn, read-out: bronchoconstriction protection, score 15 mn): > 75%
- inhibition in vivo at 0.42 µmol/kg [2, 5]: < 20%
- inhibition in vivo at 4.18 µmol/kg ([2]; 0.5 h, 4.18 μmol/kg, 30 mn, read-out: bronchoconstriction protection, score 30 mn): 50 to 75%
- Ki (β adrenoceptors): 760 nM

Compound: OCc1cc(C(O)CNCC2CCC(c3ccccc3)O2)ccc1O (stereo not drawn) [Example 1, 2-phenyl-5-[N-[β-(3'-hydroxymethyl-4'-hydroxy-phenyl)-β-hydroxy-ethyl]aminomethyl]-tetrahydrofuran]
- bronchoconstriction protection, duration of action ([2]; 4.8 μmol/kg): 0 mn
- inhibition in vivo at 4.8 µmol/kg ([2]; 5 min, 4.8 μmol/kg, 5 mn, read-out: bronchoconstriction protection, score 5 mn): < 20%
- inhibition in vivo at 4.8 µmol/kg ([2]; 0.25 h, 4.8 μmol/kg, 15 mn, read-out: bronchoconstriction protection, score 15 mn): < 20%
- inhibition in vivo at 4.8 µmol/kg ([2]; 0.5 h, 4.8 μmol/kg, 30 mn, read-out: bronchoconstriction protection, score 30 mn): < 20%
- Ki (β adrenoceptors): 410 nM

Compound: OCc1cc(C(O)CNCC2CCC(c3ccccc3F)O2)ccc1O (stereo not drawn) [Example 6, 2-(2'-fluorophenyl)-5-[N-[β-(3'-hydroxymethyl-4'-hydroxy-phenyl)-β-hydroxy-ethyl]-aminomethyl]-tetrahydrofuran]
- bronchoconstriction protection, duration of action ([2]; 0.47 μmol/kg): < 30 mn
- inhibition in vivo at 0.47 µmol/kg ([2]; 5 min, 0.47 μmol/kg, 5 mn, read-out: bronchoconstriction protection, score 5 mn): 50 to 75%
- inhibition in vivo at 0.47 µmol/kg ([2]; 0.25 h, 0.47 μmol/kg, 15 mn, read-out: bronchoconstriction protection, score 15 mn): 20 to 50%
- inhibition in vivo at 0.47 µmol/kg ([2]; 0.5 h, 0.47 μmol/kg, 30 mn, read-out: bronchoconstriction protection, score 30 mn): 20 to 50%
- Ki (β adrenoceptors): 1800 nM

Compound: OCc1cc(C(O)CNCC2CCC(c3ccncc3)O2)ccc1O (stereo not drawn) [Example 12, 2-(4'-pyridyl)-5-[N-[β-(3'-hydroxymethyl-4'-hydroxy-phenyl)-β-hydroxy-ethyl]-aminomethyl]-tetrahydrofuran]
- bronchoconstriction protection, duration of action ([2]; 0.13 μmol/kg): > 30 mn
- bronchoconstriction protection, duration of action ([2]; 0.42 μmol/kg): > 30 mn
- inhibition in vivo at 0.13 µmol/kg [2, 6]: 50 to 75%
- inhibition in vivo at 0.42 µmol/kg [2, 3]: 50 to 75%
- inhibition in vivo at 0.13 µmol/kg [2, 7]: 20 to 50%
- inhibition in vivo at 0.42 µmol/kg [2, 4]: 50 to 75%
- inhibition in vivo at 0.13 µmol/kg [2, 8]: 20 to 50%
- inhibition in vivo at 0.42 µmol/kg [2, 5]: 20 to 50%
- Ki (β adrenoceptors): 350 nM

Further lines, with some results ahead:

- Ki (β adrenoceptors): 570 nM
Compound: OCc1cc(C(O)CNCCCC2CCC(c3ccccc3Cl)O2)ccc1O (stereo not drawn) [Example 16, 2-(2'-chlorophenyl)-5-[N-[β-(3'-hydroxymethyl-4'-hydroxy-phenyl)-β-hydroxy-ethyl]-aminopropyl]-tetrahydrofuran]
- bronchoconstriction protection, duration of action ([2]; 1.6 μmol/kg): > 15 mn
- inhibition in vivo at 1.6 µmol/kg [2, 9]: 20 to 50%
- inhibition in vivo at 1.6 µmol/kg [2, 10]: 20 to 50%
- inhibition in vivo at 1.6 µmol/kg [2, 11]: < 20%

- Ki (β adrenoceptors): 1600 nM
Compound: COc1cc(C2CC(CNCC(O)c3ccc(O)c(CO)c3)CO2)cc(OC)c1OC (centres unmarked) [Example 18]
- bronchoconstriction protection, duration of action ([2]; 1.6 μmol/kg): 30 mn
- inhibition in vivo at 1.6 µmol/kg [2, 9]: 50 to 75%
- inhibition in vivo at 1.6 µmol/kg [2, 10]: 20 to 50%
- inhibition in vivo at 1.6 µmol/kg [2, 11]: 20 to 50%

- Ki (β adrenoceptors): 2500 nM
Compound: CC(C)(C)NCC(O)c1ccc(O)c(CO)c1 (centres unmarked) [Salbutamol, reference compound]
- bronchoconstriction protection, duration of action ([2]; 0.13 μmol/kg): 10 mn
- bronchoconstriction protection, duration of action ([2]; 0.42 μmol/kg): 30 mn
- inhibition in vivo at 0.13 µmol/kg [2, 6]: > 75%
- inhibition in vivo at 0.42 µmol/kg [2, 3]: > 75%
- inhibition in vivo at 0.13 µmol/kg [2, 7]: < 20%
- inhibition in vivo at 0.42 µmol/kg [2, 4]: > 75%
- inhibition in vivo at 0.13 µmol/kg [2, 8]: < 20%
- inhibition in vivo at 0.42 µmol/kg [2, 5]: < 20%
